Reference: patent US20100168406A1, “USE OF GINSENOSIDE Rb2 MONOMER IN THE MANUFACTURE OF MEDICAMENTS FOR THROMBOLYSIS” (priority 2006, published 2010)

Columns and labels:
[1] = system: thrombi; assay: In vitro thrombolytic effect on capillary thrombi (24 h, 37° C.); format: biochemical, Wistar rats
Protocol: Nine female Wistar rats were used. Blood samples were taken from postorbital venous plexus using hard neutral glass capillary, 4 capillaries for each rat and 36 capillaries in total. The capillaries which contained the blood samples were left over night and the thrombi were then removed. The 4 thrombus samples of each rat were placed into test tubes containing 1 ml NS solution, 1000 U urokinase in 1 ml NS solution, 1 mg Rb2 (80%) in 1 ml NS solution and 1 mg Rb2 (98%) in 1 ml NS solution, respectively. All the test tubes were placed into a water bath at a temperature of 37° C. with shaking at an interval of 30 minutes. 24 hours later, the solutions were decanted, the remaining thrombi were weighed and the thrombolysis rate was calculated. Thrombolysis rate=(starting weight of thrombus−remaining weight of thrombus)/starting weight of thrombus×100%

[2] = system: arteriovenous shunt thrombus in rats; assay: Arteriovenous shunt thrombosis method, in vivo thrombolytic effect; set-up: species or system Winstar rats; settings: femoral vein injection given twice
Protocol: Arteriovenous shunt thrombosis method was applied in Winstar rats to observe the inhibition of thrombosis in rats. Under intraperitoneal anesthesia with mebumal sodium, a polyethylene tube penetrated by a silk thread was placed between the right common carotid artery and the left external jugular vein, to allow blood flow through the thread for 15 min. Upon formation of a thrombus, the test agents were injected into femoral vein, and again after an interval of 15 min, both of the same dosage. 45 min post administration, the silk thread was removed rapidly and weighed. Subtraction of the weight of silk thread from the total weight yielded the weight of the thrombus (mg). The thrombus was dried in an oven at a temperature of 60° C. for 4 hours, so as to give the dry weight (mg) of the thrombus.

[3] = system: blood clots; assay: In vitro thrombolytic effect on rat blood clots (6 h, 37° C.); format: biochemical, rats
Protocol: Rats used in the study were anaesthetized by urethane. Blood samples were taken from abdominal aorta, placed in plastic tubes, and were removed after 24 hours of coagulation. The blood clot was semi-blotted with filter paper and cut into pieces. 90 to 120 mg blood clots were accurately weighed and put into test tubes, to which NS, an Rb2 solution of 200 μg/ml, 100 μg/ml, or 50 μg/ml, or a urokinase solution of 50 U/ml, in a volume of 1 ml was added, respectively, and were then placed into a thermostatic horizontal shaking bath at a temperature of 37° C. and with a shaking frequency of 90 times/min for 6 hours. The undissolved blood clots were removed and weighed after semi-blotting with filter paper. The relative thrombolysis rate was calculated. SPSS 10.0 statistical software was used to perform t test among groups.

[4] = system: KunMing mice; assay: Auricle microcirculation in mice with Isoprel-induced acute myocardial necrosis; format: in vivo; settings: 40 mg/kg intraperitoneal Day 1-7, Isoprel 7.5 mg/kg sc Day 5 and 6, 30 min after last dose
Protocol: (§1) 20 KunMing mice, 10 male and 10 female, were randomly divided into the control group and the administration group. The control group received intraperitoneal injection of physiological saline from Day 1 to Day 7 and subcutaneous injection of Isoprel at a dosage of 0.3 ml (7.5 mg/kg) on Day 5 and Day 6. The ginsenoside monomer Rb2 administration group received intraperitoneal injection of ginsenoside monomer Rb2 at a dosage of 40 mg/kg for 4 consecutive days; subcutaneous injection of Isoprel at a dosage of 0.3 ml (7.5 mg/kg) followed by intraperitoneal injection of ginsenoside monomer Rb2 at a dosage of 40 mg/kg on Day 5; intraperitoneal injection of ginsenoside monomer Rb2 at a dosage of 40 mg/kg followed by subcutaneous injection of Isoprel on Day 6. On Day 7, 30 min after intraperitoneal injection of ginsenoside monomer Rb2, the auricle microcirculation was determined. The data obtained from the study were subjected to t-test between groups.

[5] = system: KunMing mice; assay: Degree of cardiomyopathy (HE staining of heart) in Isoprel-induced acute myocardial necrosis; format: in vivo; settings: 40 mg/kg intraperitoneal, Isoprel-treated mice, of 10 animals
Protocol: as §1
After the determination of auricle microcirculation, animals were sacrificed and heart samples were removed for HE staining for microscopic examination. The samples were classified according to the grading standards for cardiomyopathy.

[6] = system: mice; assay: Effect of Rb2 (~60%) on auricle microcirculation in mice; format: in vivo; settings: 120 mg/10 ml/kg intragastric for 3 days, 30 minutes after last administration
Protocol: 20 mice, 10 male and 10 female, were randomly divided into the control group and the administration group. Animals in the administration group received intragastric administration of Rb2 at 120 mg/10 ml/kg for 3 days. Animals in the control group were given water of the same volume. The calibers, flow rate and flow pattern of V3 grade arteriole and venule were determined 30 minutes after the last administration. The data obtained from the study was subjected to t-test between groups.

[7] = system: Wistar rats; assay: Reperfusion injury after bilateral common carotid artery clamping, morphological examination of cerebral tissue; format: in vivo; settings: Rb2 purity 90%, 10 mg/kg iv after reperfusion, brains examined 1 hour after administration
Protocol: Male Wistar rats weighing 300±20 g were supplied by the Animal Office of Tianjin Institute of Pharmaceutical Research.
Rb2 was prepared with NS in a ratio of […] for intravenous injection in rats before use.
30 rats were randomly divided into 3 groups with 10 rats in each group. The sham operation group received (iv) physiological saline, the model group received (iv) physiological saline and the Rb2 (with a purity of 90%) group received (iv) 10 mg/kg. All groups were administered through intravenous injection after reperfusion injury.
The rats were weighed at the time of experiment. They were anaesthetized by urethane (lg/kg) through intraperitoneal injection, laid on their back on the operation table, and cut in the middle of the neck. The common carotid arteries on both sides were dissected and clamped using small-sized artery clamps. 2 hours later, the clamps were loosened to restore blood supply, and the animals were given intravenous administration immediately. The rats were decapitated 1 hour after the administration, the brains were removed and placed into a 10% formaldehyde solution for fixation, followed by morphological examination of the cerebral tissue.

CC(C)=CCC[C@](C)(O[C@@H]1O[C@H](CO[C@@H]2OC[C@H](O)[C@H](O)[C@H]2O)[C@@H](O)[C@H](O)[C@H]1O)[C@H]1CC[C@]2(C)[C@@H]1[C@H](O)C[C@@H]1[C@@]3(C)CC[C@H](O[C@@H]4O[C@H](CO)[C@@H](O)[C@H](O)[C@H]4O[C@@H]4O[C@H](CO)[C@@H](O)[C@H](O)[C@H]4O)C(C)(C)[C@@H]3CC[C@]12C [Rb2 (98%), ginsenoside Rb2]
Final weight of thrombus ([1]; 1 mg/ml in NS): 5.5 ± 3.2 mg
Thrombolysis rate % ([1]; 1 mg/ml in NS): 71.5%

CC(C)=CCC[C@](C)(O[C@@H]1O[C@H](CO[C@@H]2OC[C@H](O)[C@H](O)[C@H]2O)[C@@H](O)[C@H](O)[C@H]1O)[C@H]1CC[C@]2(C)[C@@H]1[C@H](O)C[C@@H]1[C@@]3(C)CC[C@H](O[C@@H]4O[C@H](CO)[C@@H](O)[C@H](O)[C@H]4O[C@@H]4O[C@H](CO)[C@@H](O)[C@H](O)[C@H]4O)C(C)(C)[C@@H]3CC[C@]12C [Rb2, ginsenoside Rb2]
Dry weight of thrombus ([2]; Rb2 purity 93.9%, 2.5 mg/kg): 8.50 ± 1.91 mg
Inhibition % (dry weight of thrombus) ([2]; Rb2 purity 93.9%, 2.5 mg/kg): 15.59%
Inhibition % (wet weight of thrombus) ([2]; Rb2 purity 93.9%, 2.5 mg/kg): 8.71%
Wet weight of thrombus ([2]; Rb2 purity 93.9%, 2.5 mg/kg): 31.75 ± 8.54 mg
Dry weight of thrombus ([2]; Rb2 purity 93.9%, 5 mg/kg): 6.60 ± 1.35 mg
Inhibition % (dry weight of thrombus) ([2]; Rb2 purity 93.9%, 5 mg/kg): 34.46%
Inhibition % (wet weight of thrombus) ([2]; Rb2 purity 93.9%, 5 mg/kg): 34.73%
Wet weight of thrombus ([2]; Rb2 purity 93.9%, 5 mg/kg): 22.70 ± 4.94 mg
Dry weight of thrombus ([2]; Rb2 purity 93.9%, 10 mg/kg): 6.87 ± 1.73 mg
Inhibition % (dry weight of thrombus) ([2]; Rb2 purity 93.9%, 10 mg/kg): 31.72%
Inhibition % (wet weight of thrombus) ([2]; Rb2 purity 93.9%, 10 mg/kg): 23.43%
Wet weight of thrombus ([2]; Rb2 purity 93.9%, 10 mg/kg): 26.63 ± 5.04 mg
Relative thrombolysis % ([3]; 50 μg/ml): 27.4 ± 8.3 %
Weight of blood clot After lysis ([3]; 50 μg/ml): 78.9 ± 17.8 mg
Relative thrombolysis % ([3]; 100 μg/ml): 28.0 ± 9.1 %
Weight of blood clot After lysis ([3]; 100 μg/ml): 81.4 ± 13.4 mg
Relative thrombolysis % ([3]; 200 μg/ml): 27.1 ± 9.1 %
Weight of blood clot After lysis ([3]; 200 μg/ml): 81.8 ± 13.4 mg
Thrombolysis rate % ([1]; 1 mg/ml in NS, listed as Ginsenoside monomer Rb2): ≥ 70%
Blood flow velocity [4]: 238 ± 22.59 um/s
Caliber of artery [4]: 39.08 ± 1.80 um
Caliber of vein [4]: 59.9 ± 3.58 um
Degree of cardiomyopathy +++, number of animals [5]: 1
Degree of cardiomyopathy ++, number of animals [5]: 2
Degree of cardiomyopathy +, number of animals [5]: 3
Degree of cardiomyopathy −, number of animals [5]: 4
Input branch [6]: 36.42 ± 0.81[…] um/s
Output branch [6]: 65.77 ± 3.14 um/s
Pathological changes of cerebral edema and cerebral ischemia vs model control group [7]: alleviated remarkably

Urokinase [reference compound]
Dry weight of thrombus ([2]; 5000 U (5000 U/kg)): 6.62 ± 1.85 mg
Inhibition % (dry weight of thrombus) ([2]; 5000 U (5000 U/kg)): 34.26%
Inhibition % (wet weight of thrombus) ([2]; 5000 U (5000 U/kg)): 25.37%
Wet weight of thrombus ([2]; 5000 U (5000 U/kg)): 25.37 ± 6.37 mg
Relative thrombolysis % ([3]; 50 U/ml): 32.7 ± 10.0 %
Weight of blood clot After lysis ([3]; 50 U/ml): 73.8 ± 11.3 mg
Final weight of thrombus ([1]; 1000 U/ml in NS): 0 mg
Thrombolysis rate % ([1]; 1000 U/ml in NS): 100%
